Data as given in paper PMC4890880 (ACS infectious diseases, 2016).
Like-named read-outs stand apart in the source and are kept apart here.

Key:
[1] = test system: HepG2-A16-CD81EGFP cells; settings: for IC50: read-out: Tox_IC50, HepG2 cytotoxicity
[2] = test system: Plasmodium berghei (Pb-Luc) exoerythrocytic-stage parasites; assay: microbe, parasite or virus in culture; settings: for IC50: read-out: PbLuc IC50, dose response, 1/3 dilutions, max conc. 10 or 50 uM, unit inferred
[3] = test system: HepG2-A16-CD81EGFP cells; assay: cells; settings: Homo sapiens; for cytotoxicity at 50 µM: HepG2, read-out: HepG2 Tox% @ 50 uM rep1; for IC50: HepG2, read-out: Tox IC50; for inhibition at 50 µM: HepG2, read-out: Tox max inhibition (%) @ 50 uM
[4] = sheet 2nd round, maximal inhibition in dose response
[5] = 2nd round, maximal inhibition in dose series
[6] = read-out: Inhibition% @ 50 uM rep1
[7] = read-out: Inhibition% @ 50 uM rep2
[8] = read-out: PbLuc max inhibition (%) @ 50 uM

CO[C@@H]1CN(C)C(=O)c2ccc(NC(=O)Nc3ccccc3F)cc2OC[C@@H](C)N(Cc2ccccc2F)C[C@H]1C [BRD-K00229958-001-01-0]
IC50 ([1]; sheet 2nd round): > 10 µM
Tox_max_inhibition (%) [1, 4]: 7%

COc1ccccc1CN1C[C@@H](C)[C@H](OC)CN(C)C(=O)c2ccc(NC(=O)Nc3ccccc3OC)cc2OC[C@H]1C [BRD-K01898236-001-01-5]
Tox_max_inhibition (%) [1, 5]: 9%
IC50 ([1]; 2nd round, unit inferred): > 10 µM

COc1ccc2c3c([nH]c2c1)[C@H](CO)N(C(C)=O)CC31CN(Cc2ccccc2Cl)C1 [BRD-K02242562-001-01-9]
IC50 ([1]; sheet 2nd round): > 10 µM
Tox_max_inhibition (%) [1, 4]: 3.51%

CCCN1C[C@H](C)[C@@H](OC)CN(C)C(=O)c2cc(NC(=O)Nc3cccc(F)c3)ccc2OC[C@H]1C [BRD-K02315086-001-01-0]
IC50 ([1]; sheet 2nd round): > 10 µM
Tox_max_inhibition (%) [1, 4]: 10%

COc1ccc(S(=O)(=O)Nc2ccc3c(c2)C(=O)N([C@H](C)CO)C[C@@H](C)[C@H](CN(C)Cc2ccc(C(F)(F)F)cc2)OCCCC[C@@H](C)O3)cc1 [BRD-K02689416-001-01-9]
IC50 ([1]; sheet 2nd round): > 10 µM
Tox_max_inhibition (%) [1, 4]: 12%

COc1cccc(S(=O)(=O)N2CCCCN3[C@@H](CO)[C@@H](c4ccc(C#CCC(C)C)cc4)[C@@H]3C2)c1 [BRD-K03006541-001-01-3]
IC50 ([1]; sheet "2nd round"): > 10 µM
Tox_max_inhibition (%) ([1]; sheet "2nd round"): 5%

COc1cccc(-c2cccc(-c3nc(C(=O)NCc4ccc(Oc5ccccc5)cc4)cc4c3[C@@H](CCO)N([S+]([O-])C(C)(C)C)C4)c2)c1 (stereo partly drawn) [BRD-K03403405-001-03-3]
IC50 ([1]; sheet 2nd round): > 10 µM
Tox_max_inhibition (%) [1, 4]: 6%

COc1ccc(C#Cc2ccc3c(c2)O[C@@H](CN(C)C(=O)Nc2cccc(OC)c2)[C@@H](C)CN([C@H](C)CO)S3(=O)=O)cc1 [BRD-K04089243-001-01-9]
IC50 ([1]; sheet 2nd round): > 10 µM
Tox_max_inhibition (%) [1, 4]: 2.28%

C[C@@H]1CN([C@H](C)CO)C(=O)c2c(c3ccccc3n2C)-c2ccccc2CO[C@@H]1CN(C)S(=O)(=O)c1ccc([N+](=O)[O-])cc1 [BRD-K04605557-001-01-2]
IC50 ([1]; sheet 2nd round): > 10 µM
Tox_max_inhibition (%) [1, 4]: 13%

CS(=O)(=O)N1[C@H](C#N)[C@H](c2ccc(C#Cc3cccc(F)c3)cc2)[C@H]1CO [BRD-K05470326-001-01-0]
IC50 ([1]; sheet "2nd round"): > 10 µM
Tox_max_inhibition (%) ([1]; sheet "2nd round"): 10%

C[C@@H]1CCCCO[C@H](CN(C)S(=O)(=O)c2ccccc2)[C@@H](C)CN([C@H](C)CO)C(=O)c2cc(NC(=O)Nc3ccc4c(c3)OCO4)ccc2O1 [BRD-K06373569-001-01-1]
IC50 ([1]; sheet "2nd round"): > 10 µM
Tox_max_inhibition (%) ([1]; sheet "2nd round"): 14%

COc1ccc2c3c(n(C)c2c1)[C@@H](CO)N(Cc1ccc2c(c1)OCO2)CC31CN(C(=O)c2ccc3c(c2)OCO3)C1 [BRD-K07064121-001-01-6]
IC50 ([1]; sheet "2nd round"): > 10 µM
Tox_max_inhibition (%) ([1]; sheet "2nd round"): 18%

COc1ccc2c3c([nH]c2c1)[C@H](CO)N(C(C)=O)CC31CCN(C(=O)Nc2ccc(F)cc2F)CC1 [BRD-K07378992-001-01-6]
IC50 ([1]; sheet "2nd round"): > 10 µM
Tox_max_inhibition (%) ([1]; sheet "2nd round"): 7%

CCCNC(=O)N1[C@H](CO)[C@H](c2ccc(C#Cc3cccc(F)c3)cc2)[C@@H]1C#N [BRD-K10089781-004-02-1]
IC50 ([1]; sheet 2nd round): > 10 µM
Tox_max_inhibition (%) [1, 4]: 13%

C[C@H](CO)N1C[C@H](C)[C@H](CN(C)S(=O)(=O)c2ccc(C(F)(F)F)cc2)OCc2ccccc2-c2c(n(C)c3ccccc23)C1=O [BRD-K10380905-001-01-3]
IC50 ([1]; sheet 2nd round): > 10 µM
Tox_max_inhibition (%) [1, 4]: 20%

C/C=C/c1ccc([C@H]2[C@@H](CO)N(C(=O)Nc3ccccc3F)[C@H]2C#N)cc1 [BRD-K12121340-001-01-2]
Tox_max_inhibition (%) [1, 5]: 9%
IC50 ([1]; 2nd round, unit inferred): > 10 µM

COc1ccc(C(=O)N2C[C@@H]3[C@H](c4ccccc42)[C@H](CO)N3C(=O)Cc2ccccn2)cc1 [BRD-K13582094-001-01-2]
IC50 ([1]; sheet 2nd round): > 10 µM
Tox_max_inhibition (%) [1, 4]: 4%

CC(C)(C)[S@+]([O-])N1Cc2cc(C(=O)NCC(F)(F)F)nc(-c3cccc(-c4cccc(F)c4)c3)c2[C@@H]1CCO [BRD-K14002526-001-01-8]
IC50 ([1]; sheet "2nd round"): > 10 µM
Tox_max_inhibition (%) ([1]; sheet "2nd round"): 37%

COc1ccc(-c2ccc([C@H]3[C@@H](C#N)N(C(=O)NC(C)C)[C@H]3CO)cc2)cc1 [BRD-K15519105-001-01-9]
IC50 ([1]; sheet "2nd round"): > 10 µM
Tox_max_inhibition (%) ([1]; sheet "2nd round"): 38%

COc1ccccc1NC(=O)N1C[C@@H]2N[C@H](C1)C2c1ccc(/C=C/c2ccccc2)cc1 (stereo partly drawn) [BRD-K16425675-019-01-0]
IC50 ([1]; sheet 2nd round): > 10 µM
Tox_max_inhibition (%) [1, 4]: 9%

O=C(C[C@@H]1C[C@@H]2c3cc(NC(=O)c4ccc5c(c4)OCO5)ccc3O[C@@H]2[C@@H](CO)O1)NCc1ccc(Oc2ccccc2)cc1 [BRD-K16956545-001-01-0]
IC50 ([1]; sheet "2nd round"): > 10 µM
Tox_max_inhibition (%) ([1]; sheet "2nd round"): 5%

CS(=O)(=O)N1C[C@@H]2N[C@H](C1)C2c1ccc(-c2ccccc2)cc1 (stereo partly drawn) [BRD-K16971439-019-01-0]
IC50 ([1]; sheet 2nd round): > 10 µM
Tox_max_inhibition (%) [1, 4]: 5%

CN1c2ccc(C#Cc3cccnc3)cc2[C@@H]2[C@@H](CCN2C(=O)c2cccc(F)c2)[C@@H]1CO [BRD-K18296007-001-01-0]
Tox_max_inhibition (%) [1, 5]: 14%
IC50 ([1]; 2nd round, unit inferred): > 10 µM

CCCNC(=O)N1[C@H](C#N)[C@H](c2ccccc2-c2ccc(OC)cc2)[C@@H]1CO [BRD-K19492647-001-01-0]
Tox_max_inhibition (%) [1, 5]: 9%
IC50 ([1]; 2nd round, unit inferred): > 10 µM

CC(C)(C)[S+]([O-])N1Cc2cc(C(=O)NCc3ccc4c(c3)OCO4)nc(-c3cccc(-c4cc5ccccc5o4)c3)c2[C@H]1CCO (stereo partly drawn) [BRD-K19560511-001-03-3]
Tox_max_inhibition (%) [1, 5]: 12%
IC50 ([1]; 2nd round, unit inferred): > 10 µM

COc1ccc2c3c(n(C)c2c1)[C@H](CO)N(Cc1ccc2c(c1)OCO2)CC31CN(C(=O)c2ccc3c(c2)OCO3)C1 [BRD-K24711160-001-01-3]
IC50 ([1]; sheet 2nd round): > 10 µM
Tox_max_inhibition (%) [1, 4]: 3%

O=C(Nc1cc(F)ccc1F)N1CCCCN2[C@H](CO)[C@H](c3ccc(C4=CCCCC4)cc3)[C@@H]2C1 [BRD-K26542939-001-01-0]
IC50 ([1]; sheet 2nd round): > 10 µM
Tox_max_inhibition (%) [1, 4]: 16%

COc1ccccc1S(=O)(=O)N(C)C[C@@H]1Oc2cc(/C=C/c3ccccc3)ccc2S(=O)(=O)N([C@H](C)CO)C[C@H]1C [BRD-K26611181-001-01-8]
IC50 ([1]; sheet 2nd round): > 10 µM
Tox_max_inhibition (%) [1, 4]: 33%

C[C@@H]1CCCCO[C@@H](CN(C)C(=O)Nc2cccc3ccccc23)[C@H](C)CN([C@@H](C)CO)C(=O)c2cc(NC(=O)CCC(F)(F)F)ccc2O1 [BRD-K26887637-001-01-4]
IC50 ([1]; sheet 2nd round): > 10 µM
Tox_max_inhibition (%) [1, 4]: 11%

COc1ccc(Nc2nc(NN=Cc3ccc(O)cc3)nc(Nc3ccc([N+](=O)[O-])cc3)n2)cc1 [MMV666689]
inhibition at 50 µM [2, 6]: 98%
inhibition at 50 µM [2, 7]: 98%
IC50 [2]: 15.9 µM
inhibition at 50 µM [2, 8]: 95%
cytotoxicity at 50 µM [3]: 97%
IC50 [3]: 46.8 µM
inhibition at 50 µM [3]: 73%

COc1ccc(CCn2c(=N)c(C(=O)NCc3cccnc3)cc3c(=O)n4cccc(C)c4nc32)cc1 [MMV667488]
inhibition at 50 µM [2, 6]: 81%
inhibition at 50 µM [2, 7]: 83%
cytotoxicity at 50 µM [3]: -0.0644%

COc1ccc(C2c3ccc4ccccc4c3Oc3ncn(CCCn4ccnc4)c(=N)c32)cc1OC (stereo not drawn) [MMV667490]
inhibition at 50 µM [2, 6]: 104%
inhibition at 50 µM [2, 7]: 104%
cytotoxicity at 50 µM [3]: 102%

COc1ccc(C2c3ccc4ccccc4c3Oc3ncn(CCCN(C)C)c(=N)c32)cc1 (stereo not drawn) [MMV667491]
inhibition at 50 µM [2, 6]: 103%
inhibition at 50 µM [2, 7]: 103%
IC50 [2]: 4 µM
inhibition at 50 µM [2, 8]: 94%
cytotoxicity at 50 µM [3]: 99%
IC50 [3]: 10.7 µM
inhibition at 50 µM [3]: 93%

CN(N=O)C1=C(NC2CCCCC2)C(=O)c2ccccc2C1=O [MMV667492]
inhibition at 50 µM [2, 6]: 103%
inhibition at 50 µM [2, 7]: 104%
cytotoxicity at 50 µM [3]: 98%
